Literature values as cited in patent US11452308B2, “Method of selecting a probiotic” (SOCIETE DES PRODUITS NESTLE S.A., priority 2017, dated 2022).

Assays:
[1] = in vivo
[2] = compared with hydroxytyrosol

clearance from the plasma [1] | Compound | solubility in the lipophilic phases [2]
slower clearance from the plasma | CC=C1C(O)OC=C(C(=O)OC)C1CC(=O)OCCc1ccc(O)c(O)c1 (centres unmarked) [oleuropein aglycone, 3,4-dihydroxyphenylethanol-elenolic acid] | 
 | hydroxytyrosol acetate | more soluble in the lipophilic phases than hydroxytyrosol
